Data on one compound can be found in article PMC10699557, “A recombinant approach for stapled peptide discovery yields inhibitors of the RAD51 recombinase” (Chemical Science, 2023).

Molecules are shown by their SMILES. Numbered stars: 1 amine (or outer) side, 2 acyl side, 3 side chain; on linkers, the order of the positions; unused ones are H or OH. Bridge positions count the residues as written; N and C are the ends. Peptide text beside a SMILES is read from it. X1 = Nc1nc(CC[*:1])cc(CC[*:2])n1

For experiment [1], the target named is monomeric version of RAD51 (HumRadA22) (Pyrococcus furiosus, UniProt O74036). As to the kind of experiment: Fluorescence polarisation (FP) competition assay: displacement of fluorescein-labelled BRC4 repeat. The format is binding, archaeal RadA mutant with human Rad51 surface residues. The conditions noted are these: read-out: FP competition KD, nM, Stapled; stapled product (linker DVT or DVP as in Table 1); 100 nM HumRadA22, 10 nM BRC4-fluorescein; 20 mM CHES pH 9.5, 150 mM NaCl, 0.1% BSA, 0.1% Tween-20; KD calculated from IC50; single titration, three technical replicates per point. The source says: We prepared all stapled peptides from small-scale bacterial cultures as GB1/C-His8 fusions and cyclised them with the DVT linker. For peptides SP10, SP11, SP12 and SP15, correct stapling was confirmed by MS, showing a similar composition to SP2 (Fig. S15–S18 ^†). Thus, we confirm that the pseudo-dilution approach is robust in yielding almost exclusively the cyclised product, irrespective of whether a helical or non-helical motif is being constrained. To examine the effect of introducing a covalent staple on affinity, a mock reaction was done in parallel for each peptide by splitting the IMAC elution into two halves and adding DMSO to the mock control instead of the linker. TCEP (500 μM) was included in the mock reaction to maintain the peptide in linear form by preventing disulfide formation. The peptides were tested in a fluorescence polarisation (FP) assay monitoring the displacement of a fluorescently-labelled BRC4 repeat from a monomeric version of RAD51 (HumRadA22), as reported previously.[25] […]
Fluorescence polarisation competition assay
FP competition assay was a modified version of a protocol described previously. Fluorescein-labelled HsBRC4 probe for this assay was kindly provided by Dr Laurens Lindenburg (Hollfelder group, Department of Biochemistry, University of Cambridge). Black 384-well flat-bottom microplates (Corning, 3821) were used with a 40 μl final reaction volume in all measurements. Following buffer conditions were used: 20 mM CHES pH 9.5, 150 mM NaCl, 0.1% BSA, 0.1% Tween-20. Each reaction contained 100 nM HumRadA22 and 10 nM BRC4-fluorescein. Two-fold serial dilutions of stapled peptides were added to the reactions. A free probe control reaction containing only 10 nM BRC4-fluorescein was used to calibrate gain and focal height. FP measurements were performed on Pherastar FX or Clariostar Plus (BMG Labtech) plate readers equipped with an FP 485-520-520 optic modules. Binding curves were fitted using the four-parameter logistic model with a variable Hill slope using Prism software (Graphpad). Regression fitting was performed using the least squares optimisation algorithm.
KD values were estimated from the fitted IC 50 parameters using a previously reported

In experiment [2] the test system is RAD51:dT60 nucleoprotein filament (full-length human RAD51). In words: Electrophoretic mobility shift assay (EMSA) of nucleoprotein filament disruption. It is filed as biochemical. The conditions noted are these: 5 μM full-length human RAD51, 100 nM FAM-dT60, varying peptide concentrations; 50 mM HEPES pH 7.4, 1 mM ATP. On the procedure:
We evaluated the effect of stapled peptides SP2, SP24 and SP30 on the nucleoprotein filament using electrophoretic mobility shift assay (EMSA, Fig. 3D). A fluorescently labelled dT60 oligonucleotide was incubated with full-length RAD51, after which the peptides were added at different concentrations before separating the products on a polyacrylamide gel.
(§1) Isothermal titration calorimetry
(§2) Peptides were resuspended in MilliQ water to 10 times the desired final concentration.
This was then diluted 10x with the ITC buffer to obtain the final titrant solution (20 mM CHES pH 9.5, 150 mM NaCl, 0.1% Tween-20). HumRadA22 was buffer-exchanged on a NAP-5 desalting column (Cytiva) into ITC buffer and protein concentration was adjusted to 10:9 of the desired final value. One ninth volume of MilliQ water was added to the solution to bring the protein concentration to the desired final value, while maintaining identical buffer:MilliQ volume proportions in both the syringe and the cell. ITC was carried out using a Microcal ITC200 or Malvern PEAQ ITC instruments at 25°C with a 5.00 μCal reference power DP value, stirring speed of 500-750 rpm, 2 sec filter period. Injection spacing, speed and volume, cell/syringe concentrations as well as the number of injections were adjusted for each peptide and its binding properties. ITC data were fitted using a single-site binding model using the Microcal ITC data analysis program in the Origin 7.0 package. Data points affected by baseline spikes were omitted from the analysis.
Circular dichroism spectroscopy
(§3) Dried peptides were dissolved in MilliQ water to 0.3 mg/ml, and then two-fold diluted in 20 mM sodium phosphate, pH 7.4, giving a final solution of 0.15 mg/ml peptide in 10 mM sodium phosphate. CD spectra of selected peptides were recorded on an AVIV 410 circular dichroism spectropolarimeter using a 1 mm path length quartz cuvette. […]
(§4) The ability of linear and stapled BRC repeat peptides to dissociate RAD51-ssDNA nucleofilament was evaluated using an electrophoretic mobility shift assay (EMSA). […]

In experiment [3] the target is HumRadA22 (Pyrococcus furiosus, UniProt O74036). As to the kind of experiment: Isothermal titration calorimetry (ITC) of peptide binding. On the set-up: species or system archaeal RadA mutant with human Rad51 surface residues. The conditions noted are these: read-out: ITC KD; free peptides; 20 mM CHES pH 9.5, 150 mM NaCl, 0.1% Tween-20; 25°C; single-site binding model. On the procedure:
We then evaluated the binding of free peptides to HumRadA22 using FP competition assay and isothermal titration calorimetry (Table 1 and Fig. 3B and C). […] All three peptides SP2, SP24 and SP30 bound with similar low-nanomolar affinities in ITC, and the binding appears to be slightly weaker relative to the linear BRC8-2 template (Fig. 3C).
as §1, §2
This was then diluted 10x with the ITC buffer to obtain the final titrant solution (20 mM CHES pH 9.5, 150 mM NaCl, 0.1% Tween-20). HumRadA22 was buffer-exchanged on a NAP-5 desalting column (Cytiva) into ITC buffer and protein concentration was adjusted to 10:9 of the desired final value. […]
as §3, §4

With `CC(C)C[C@@H]1NC(=O)[C@H](C)NC(=O)[C@H](CCC(N)=O)NC(=O)[C@@H](NC(=O)[C@H](CO)NC(=O)[C@@H](NC(=O)[C@H](CC(N)=O)NC(=O)[C@H](CC(C)C)NC(=O)[C@H](CCCCN)NC(=O)[C@H](CCCCN)NC(=O)CNC(=O)[C@H](CO)NC(=O)[C@H](C)NC(=O)[C@@H](NC(=O)[C@H](CO)NC(=O)[C@H](Cc2ccccc2)NC(=O)CNC(=O)[C@H](CO)NC(=O)CN)[C@@H](C)O)C(C)C)CSCCc2cc(nc(N)n2)CCSC[C@@H](C(=O)N[C@@H](CCCCN)C(=O)N[C@@H](CC(C)C)C(=O)N[C@@H](Cc2ccccc2)C(=O)N[C@@H](CO)C(=O)NCC(=O)O)NC(=O)[C@H](C)NC(=O)[C@H](CCCCN)NC(=O)[C@H](CCC(N)=O)NC1=O` [SP24] (H-GSGFSTASGKKLNVSCQALQKACKLFSG-OH; linker 16-23 via X1), the Kd in experiment [1] was 13 nM; in experiment [3] it was 21 nM. Also, the “Depolymerisation of RAD51 from single-stranded DNA (EMSA)” value in experiment [2] was “depolymerise RAD51 from single-stranded DNA to similar extent”.
